Laboratory results reported in patent publication US20130274258A1, “CARBAZOLE AND CARBOLINE DERIVATIVES, AND PREPARATION AND THERAPEUTIC APPLICATIONS THEREOF” (PHILIP MORRIS PRODUCTS S.A., priority 2010, published 2013).

Key:
Jurkat cells [1] = assay: Jurkat cell viability, resazurin (Alamar Blue) assay; format: cell-based; conditions: Homo sapiens, Jurkat
caspase 3 and 7 = assay: Apoptosis induction in Jurkat cells, caspase 3 and 7 assay; format: cell-based
Method: Compounds were assessed for their ability to induce apoptosis of Jurkat cells at 2 and 10 micromolar after 4 and 22 hours.
In order to firmly establish that the compounds of the invention cause cytotoxicity through apoptosis, IC50 of five compounds of the invention, doxorubicin and staurosporin were determined in the caspase assays; results are presented in Table 2. Importantly, the IC50 determined in the Alamar Blue and in the caspase assays were largely overlapping.

Jurkat cells [2] = assay: Annexin V staining of Jurkat cells by flow cytometry; format: cell-based; conditions: Homo sapiens, 22 hours, 0.005 to 10 μM, read-out: half-maximal annexin V staining
Method: Jurkat cells were cultured for 22 hours in the presence of E3 at 1.1 μM from a stock solution at 10 mM in DMSO or in the presence of graded concentrations of E3 (0.005 to 10 μM). Then, the cell's were stained with phycoerythrin-labeled annexin V following the instructions of the manufacturer (Millipore) and analyzed by flow cytometry (Guava, Millipore) to determine annexin V staining.

[3] = system: panel of human tumor cell lines; assay: Sensitivity of a panel of human tumor cell lines, Alamar Blue; format: cell-based; conditions: graded doses, 22 hours + 4 hours Alamar Blue
Method: Sensitivity and resistance of a panel of human tumor cell lines to treatment with E3 were investigated. An optimal number of cells (usually between 2'000 and 5'000 for adherent cells and 10'000 for cells growing in suspension) from the different tumor lines were treated with graded doses of E3. After 22 hours, Alamar Blue was added following the instructions provided by the manufacturer (Invitrogen). Four hours later, fluorescence of the wells was determined at 590 nm.

purified porcine tubulin = purified porcine tubulin (Sus scrofa, UniProt P02550+P02554); assay: Inhibition of 3H-labeled colchicine binding to purified tubulin, scintillation proximity assay; conditions: graded doses
Chain of purified porcine tubulin (P02554 whole entry): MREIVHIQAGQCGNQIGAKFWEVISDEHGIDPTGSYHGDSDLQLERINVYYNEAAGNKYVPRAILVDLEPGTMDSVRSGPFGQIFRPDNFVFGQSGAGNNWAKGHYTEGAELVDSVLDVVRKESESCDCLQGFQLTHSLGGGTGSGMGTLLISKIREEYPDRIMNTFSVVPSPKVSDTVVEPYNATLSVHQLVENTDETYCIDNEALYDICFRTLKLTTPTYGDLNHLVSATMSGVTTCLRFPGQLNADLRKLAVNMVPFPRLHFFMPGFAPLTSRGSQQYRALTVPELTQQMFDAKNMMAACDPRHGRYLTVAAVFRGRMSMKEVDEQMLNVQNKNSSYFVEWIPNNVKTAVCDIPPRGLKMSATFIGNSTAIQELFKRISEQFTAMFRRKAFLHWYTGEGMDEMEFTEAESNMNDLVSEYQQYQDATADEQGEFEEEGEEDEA
Chain of purified porcine tubulin (P02550 whole entry): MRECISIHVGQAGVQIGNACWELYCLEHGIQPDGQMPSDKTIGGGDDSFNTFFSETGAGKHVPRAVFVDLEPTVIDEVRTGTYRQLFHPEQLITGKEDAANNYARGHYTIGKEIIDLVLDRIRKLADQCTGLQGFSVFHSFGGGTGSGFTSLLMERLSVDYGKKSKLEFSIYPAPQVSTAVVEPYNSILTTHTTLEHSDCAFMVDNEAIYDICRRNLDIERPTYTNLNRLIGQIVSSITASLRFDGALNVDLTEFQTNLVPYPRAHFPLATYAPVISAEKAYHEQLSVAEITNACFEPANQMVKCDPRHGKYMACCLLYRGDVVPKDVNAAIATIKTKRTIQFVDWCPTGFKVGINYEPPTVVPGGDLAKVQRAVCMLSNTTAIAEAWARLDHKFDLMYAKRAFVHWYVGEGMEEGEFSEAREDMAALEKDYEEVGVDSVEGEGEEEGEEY
Method: A series of compounds according to the invention and C14 vincristine and colchicine were tested for their capacity to inhibit ^3H-labeled colchicine binding to purified tubulin. Briefly, a limiting amount of tritium-labeled colchicine and graded doses of test compounds were added to purified porcine tubulin. After an incubation period, radioactivity associated with tubulin was determined using a scintillation proximity assay. […] By showing that these compounds interact with the colchicine binding site, it differentiates them from the tubulin inhibitors of the Vinca alkaloid- and taxane-types. The results also indicate that the compounds of the invention can be used in combination with the Vinca alkaloid- and taxane-types of tubulin inhibitors since they bind to a different aspect of tubulin, and likely affect tubulin polymerization via a different mechanism. The results also indicate that the compounds of the invention can be used even in patients who are refractory or non-responsive to other tubulin inhibitors, such as the tubulin inhibitors of the Vinca alkaloid- and taxane-types.

[4] = Solubilization in intravenous formulation; format: physicochemical; conditions: aqueous with cosolvent or surfactant or cyclodextrin; 5% Cremophor and 5% ethanol in water
Text: This formulation was then used for the subsequent animal studies (maximal tolerated dose, pharmacokinetics and efficacy in cancer models).

[5] = Pharmacokinetics after intravenous injection, plasma concentration; format: in vivo; conditions: mice, 15 mg/kg intravenous
Method: The pharmacokinetics of E3 and E35 were investigated. Mice intravenously injected with 15 mg/kg of E3 were bled after 0, 1, 5, 10, 20, 30, 60, 120 and 480 minutes. […] For E35, mice intravenously injected with 30 mg/kg of […] were bled after 0, 1, 5, 10, 20, 30, 60, 120 and 480 minutes. […] Concentration then decreased steadily over the 8 hours of the study. During the first four hours after injection, circulating concentrations of E3 and E35 were found largely similar.

human tumor xenograft = assay: Human tumor xenograft mouse models, summary over models; format: in vivo; conditions: nude mice, three times once a week (qwk×3), FIG. 7
Method: (§1) The compounds of the invention were evaluated in human tumor xenograft mouse models. Nude mice were subcutaneously implanted with tumor cells (melanoma A2058, colon carcinoma HCT116, fibrosarcoma HT1080 and acute myelocytic leukemia MV114) and when the tumor reached a volume of about 100-150 mm^3, treatment was initiated. Tumor growth was followed over time until tumor volume reached 1000-1500 mm^3 or up to 60 days. An example of how tumor developed over time when the animals were administered or not with E3 three times once a week (qwk×3) is presented in FIG. 7. […]

melanoma A2058 = assay: Xenograft model in nude mice, melanoma A2058; format: in vivo, human
Method: as §1

colon carcinoma HCT116 = assay: Xenograft model in nude mice, colon carcinoma HCT116; format: in vivo, human
Method: as §1

fibrosarcoma HT1080 = assay: Xenograft model in nude mice, fibrosarcoma HT1080; format: in vivo, human
Method: as §1

[6] = system: acute myelocytic leukemia MV114; assay: Xenograft model in nude mice, acute myelocytic leukemia MV114; format: in vivo, human
Method: as §1

[7] = median, endpoint = death or defined tumor volume, 23 without treatment

Question: Which IC50 (Jurkat cells [1]) does the source give for `Cc1nccc2c1[nH]c1ccc(-c3cc(Cl)cc(Cl)c3)cc12` [Example E3, 6-(3,5-dichlorophenyl)-1-methyl-9H-pyrido[3,4-b]indole] here?
Answer: 89 nM

Question: What about the “caspase 3 and 7 activity compared to solvent control (%)” value (“caspase 3 and 7 activity … (%)” for short) (caspase 3 and 7; 2 μM after 4 h) of the same molecule?
Answer: −13.6%

Question: And the “caspase 3 and 7 activity … (%)” value (caspase 3 and 7; 2 μM after 22 h)?
Answer: 689.0%

Question: And the “caspase 3 and 7 activity … (%)” value (caspase 3 and 7; 10 μM after 4 h)?
Answer: 12.7%

Question: What about the “caspase 3 and 7 activity … (%)” value (caspase 3 and 7; 10 μM after 22 h) of the same molecule?
Answer: 743.7%

Question: What about the IC50 (caspase 3 and 7; Homo sapiens, Jurkat cells, caspase 3/7 assay) of the same molecule?
Answer: 0.054 µM

Question: What about the EC50 (Jurkat cells [2]) of the same molecule?
Answer: 100 to 200 nM

Question: What about the “sensitivity of tumor cell lines of hematopoietic origin versus other cell lines” value [3] of the same molecule?
Answer: more sensitive than the other cell lines

Question: And the “inhibition of 3H-labeled colchicine binding to tubulin” value (purified porcine tubulin)?
Answer: inhibited binding of colchicine

Question: What about the solubility [4] of the same molecule?
Answer: ≤ 3300 µg/mL

Question: And the “exposure (plasma concentration) for several hours” value [5]?
Answer: 3 to 10 µg/mL

Question: And the concentration at 1 min ([5]; mouse, plasma, 1 minute after injection)?
Answer: 60000 ng/mL

Question: What about the concentration at 20 min ([5]; mouse, plasma, 20 minutes) of the same molecule?
Answer: 8000 ng/mL

Question: And the concentration at 8 h ([5]; mouse, plasma, 8 hours)?
Answer: 3000 ng/mL

Question: What about the “effect on tumor growth” value (human tumor xenograft) of the same molecule?
Answer: delayed tumor growth

Question: And the “% time delay to reach study endpoint relative to no treatment” value (melanoma A2058; best treatment)?
Answer: 22%

Question: And the “Days to reach study endpoint with best treatment” value (“Days to reach study endpoint” below) (melanoma A2058; [7])?
Answer: 28 days

Question: What about the “% time delay to reach study endpoint relative to no treatment” value (colon carcinoma HCT116; best treatment) of the same molecule?
Answer: 57%

Question: And the “Days to reach study endpoint” value (colon carcinoma HCT116; [7])?
Answer: 36 days

Question: And the “% time delay to reach study endpoint relative to no treatment” value (fibrosarcoma HT1080; best treatment)?
Answer: 91%

Question: What about the “Days to reach study endpoint” value (fibrosarcoma HT1080; [7]) of the same molecule?
Answer: 44 days

Question: And the “% time delay to reach study endpoint relative to no treatment” value ([6]; best treatment)?
Answer: 52%

Question: What about the “Days to reach study endpoint” value ([6]; median, endpoint = death or defined tumor volume, 21 without treatment) of the same molecule?
Answer: 32 days
